Measured values taken from US9458137B2, “Substituted indol-5-ol derivatives and their therapeutical applications” (NantBioScience, Inc., priority 2012, dated 2016).

Experiments:
Experiment in all cases: Kinase panel activity
Format in all cases: biochemical
Conditions in all cases: 0.1 μM, ATP Km
ALK(h) = ALK(h) (Homo sapiens, UniProt Q9UM73)
Description: (§1) The effect of NTW-3475 on kinase activity was tested for a wide range of kinases and is shown in Table 2: Summary Sheet, Activity % ATP Concentration: Km

ARK5(h) = ARK5(h) (Homo sapiens, UniProt O60285)
Description: as §1

Ab1(H396P)(h) = Ab1(H396P)(h) (Homo sapiens, UniProt P00519, H396P)
Description: as §1

Aurora-C(h) = Aurora-C(h) (Homo sapiens, UniProt Q9UQB9)
Description: as §1

BRK(h) = BRK(h) (Homo sapiens, UniProt Q13882)
Description: as §1

CDK1/cyclinB(h) = CDK1/cyclinB(h) (Homo sapiens, UniProt P06493)
Description: as §1

CDK6/cyclinD3(h) = CDK6/cyclinD3(h) (Homo sapiens, UniProt Q00534)
Description: as §1

CHK2(h) = CHK2(h) (Homo sapiens, UniProt O96017)
Description: as §1

CK1γ1(h) = CK1γ1(h) (Homo sapiens, UniProt Q9HCP0)
Description: as §1

CaMKIδ(h) = CaMKIδ(h) (Homo sapiens, UniProt Q8IU85)
Description: as §1

DDR2(h) = DDR2(h) (Homo sapiens, UniProt Q16832)
Description: as §1

EGFR(L861Q)(h) = molecular target: T1, EGFR(L861Q)(h) (Homo sapiens, UniProt P00533, L861Q)
T1 construct: purchased Millipore (KinaseProfiler service)
Description: as §1

EphA4(h) = molecular target: T2, EphA4(h) (Homo sapiens, UniProt P54764)
T2 construct: purchased Millipore (KinaseProfiler service)
Description: as §1

F1t1(h) = F1t1(h) (Homo sapiens, UniProt P17948)
Description: as §1

F1t4(h) = F1t4(h) (Homo sapiens, UniProt P35916)
Description: as §1

FGFR1(V561M)(h) = molecular target: T3, FGFR1(V561M)(h) (Homo sapiens, UniProt P11362, V561M)
T3 construct: purchased Millipore (KinaseProfiler service)
Description: as §1

Fgr(h) = Fgr(h) (Homo sapiens, UniProt P09769)
Description: as §1

JNK2α2(h) = JNK2α2(h) (Homo sapiens, UniProt P45984)
Description: as §1

Lck(h) = Lck(h) (Homo sapiens, UniProt P06239)
Description: as §1

Lyn(h) = Lyn(h) (Homo sapiens, UniProt P07948)
Description: as §1

Lyn(m) = Lyn(m) (Mus musculus, UniProt P25911)
Description: as §1

MARK1(h) = molecular target: T4, MARK1(h) (Homo sapiens, UniProt Q9P0L2)
T4 construct: purchased Millipore (KinaseProfiler service)
Description: as §1

MKK4(m) = molecular target: T5, MKK4(m) (Mus musculus, UniProt P47809)
T5 construct: purchased Millipore (KinaseProfiler service)
Description: as §1

MSK1(h) = molecular target: T6, MSK1(h) (Homo sapiens, UniProt O75582)
T6 construct: purchased Millipore (KinaseProfiler service)
Description: as §1

Mer(h) = molecular target: T7, Mer(h) (Homo sapiens, UniProt Q12866)
T7 construct: purchased Millipore (KinaseProfiler service)
Description: as §1

Met(D1246N)(h) = molecular target: T8, Met(D1246N)(h) (Homo sapiens, UniProt P08581, D1228N)
T8 construct: purchased Millipore (KinaseProfiler service)
Description: as §1

PAK4(h) = PAK4(h) (Homo sapiens, UniProt O96013)
Description: as §1

PDK1(h) = PDK1(h) (Homo sapiens, UniProt O15530)
Description: as §1

PKCα(h) = PKCα(h) (Homo sapiens, UniProt P17252)
Description: as §1

PKGIβ(h) = PKGIβ(h) (Homo sapiens, UniProt Q13976)
Description: as §1

PrKX(h) = molecular target: T9, PrKX(h) (Homo sapiens, UniProt P51817)
T9 construct: purchased Millipore (KinaseProfiler service)
Description: as §1

RIPK2(h) = molecular target: T10, RIPK2(h) (Homo sapiens, UniProt O43353)
T10 construct: purchased Millipore (KinaseProfiler service)
Description: as §1

SAPK3(h) = molecular target: T11, SAPK3(h) (Homo sapiens, UniProt P53778)
T11 construct: purchased Millipore (KinaseProfiler service)
Description: as §1

SGK3(h) = molecular target: T12, SGK3(h) (Homo sapiens, UniProt Q96BR1)
T12 construct: purchased Millipore (KinaseProfiler service)
Description: as §1

TGFBR1(h) = molecular target: T13, TGFBR1(h) (Homo sapiens, UniProt P36897)
T13 construct: purchased Millipore (KinaseProfiler service)
Description: as §1

Tec(h) activated = molecular target: T14, Tec(h) activated (Homo sapiens, UniProt P42680)
T14 construct: purchased Millipore (KinaseProfiler service)
Description: as §1

Tie2(Y897S)(h) = molecular target: T15, Tie2(Y897S)(h) (Homo sapiens, UniProt Q02763, Y897S)
T15 construct: purchased Millipore (KinaseProfiler service)
Description: as §1

TrkA(h) = molecular target: T16, TrkA(h) (Homo sapiens, UniProt P04629)
T16 construct: purchased Millipore (KinaseProfiler service)
Description: as §1

ZAP-70(h) = ZAP-70(h) (Homo sapiens, UniProt P43403)
Description: as §1

cSRC(h) = cSRC(h) (Homo sapiens, UniProt P12931)
Description: as §1

Chain of CK1γ1(h) (Q9HCP0 whole entry): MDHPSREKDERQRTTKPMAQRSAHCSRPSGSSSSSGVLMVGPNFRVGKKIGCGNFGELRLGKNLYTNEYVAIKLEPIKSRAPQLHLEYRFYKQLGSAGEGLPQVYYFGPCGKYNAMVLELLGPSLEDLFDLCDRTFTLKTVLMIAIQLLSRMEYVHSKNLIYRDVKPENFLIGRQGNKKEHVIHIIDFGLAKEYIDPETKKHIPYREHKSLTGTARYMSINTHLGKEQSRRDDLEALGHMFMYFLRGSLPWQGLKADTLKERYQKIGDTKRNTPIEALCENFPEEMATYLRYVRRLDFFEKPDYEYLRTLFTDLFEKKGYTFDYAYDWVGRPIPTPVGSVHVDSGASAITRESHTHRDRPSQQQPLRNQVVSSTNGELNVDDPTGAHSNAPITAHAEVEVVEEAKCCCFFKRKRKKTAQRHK
Chain of Fgr(h) (P09769 whole entry): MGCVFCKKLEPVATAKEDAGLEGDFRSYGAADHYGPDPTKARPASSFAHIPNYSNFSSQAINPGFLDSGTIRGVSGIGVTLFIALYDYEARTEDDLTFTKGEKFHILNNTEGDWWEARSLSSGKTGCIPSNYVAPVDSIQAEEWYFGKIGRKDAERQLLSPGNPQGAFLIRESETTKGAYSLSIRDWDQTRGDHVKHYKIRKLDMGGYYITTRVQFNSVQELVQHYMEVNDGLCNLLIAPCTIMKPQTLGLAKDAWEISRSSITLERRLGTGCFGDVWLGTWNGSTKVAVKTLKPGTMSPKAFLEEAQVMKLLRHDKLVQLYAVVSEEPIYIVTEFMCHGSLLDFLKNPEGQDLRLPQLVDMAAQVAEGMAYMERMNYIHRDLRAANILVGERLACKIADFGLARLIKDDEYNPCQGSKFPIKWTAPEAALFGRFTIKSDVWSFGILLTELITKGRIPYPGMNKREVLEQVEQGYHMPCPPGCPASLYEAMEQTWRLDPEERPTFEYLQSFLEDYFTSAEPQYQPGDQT
Chain of ALK(h) (Q9UM73 19-1620): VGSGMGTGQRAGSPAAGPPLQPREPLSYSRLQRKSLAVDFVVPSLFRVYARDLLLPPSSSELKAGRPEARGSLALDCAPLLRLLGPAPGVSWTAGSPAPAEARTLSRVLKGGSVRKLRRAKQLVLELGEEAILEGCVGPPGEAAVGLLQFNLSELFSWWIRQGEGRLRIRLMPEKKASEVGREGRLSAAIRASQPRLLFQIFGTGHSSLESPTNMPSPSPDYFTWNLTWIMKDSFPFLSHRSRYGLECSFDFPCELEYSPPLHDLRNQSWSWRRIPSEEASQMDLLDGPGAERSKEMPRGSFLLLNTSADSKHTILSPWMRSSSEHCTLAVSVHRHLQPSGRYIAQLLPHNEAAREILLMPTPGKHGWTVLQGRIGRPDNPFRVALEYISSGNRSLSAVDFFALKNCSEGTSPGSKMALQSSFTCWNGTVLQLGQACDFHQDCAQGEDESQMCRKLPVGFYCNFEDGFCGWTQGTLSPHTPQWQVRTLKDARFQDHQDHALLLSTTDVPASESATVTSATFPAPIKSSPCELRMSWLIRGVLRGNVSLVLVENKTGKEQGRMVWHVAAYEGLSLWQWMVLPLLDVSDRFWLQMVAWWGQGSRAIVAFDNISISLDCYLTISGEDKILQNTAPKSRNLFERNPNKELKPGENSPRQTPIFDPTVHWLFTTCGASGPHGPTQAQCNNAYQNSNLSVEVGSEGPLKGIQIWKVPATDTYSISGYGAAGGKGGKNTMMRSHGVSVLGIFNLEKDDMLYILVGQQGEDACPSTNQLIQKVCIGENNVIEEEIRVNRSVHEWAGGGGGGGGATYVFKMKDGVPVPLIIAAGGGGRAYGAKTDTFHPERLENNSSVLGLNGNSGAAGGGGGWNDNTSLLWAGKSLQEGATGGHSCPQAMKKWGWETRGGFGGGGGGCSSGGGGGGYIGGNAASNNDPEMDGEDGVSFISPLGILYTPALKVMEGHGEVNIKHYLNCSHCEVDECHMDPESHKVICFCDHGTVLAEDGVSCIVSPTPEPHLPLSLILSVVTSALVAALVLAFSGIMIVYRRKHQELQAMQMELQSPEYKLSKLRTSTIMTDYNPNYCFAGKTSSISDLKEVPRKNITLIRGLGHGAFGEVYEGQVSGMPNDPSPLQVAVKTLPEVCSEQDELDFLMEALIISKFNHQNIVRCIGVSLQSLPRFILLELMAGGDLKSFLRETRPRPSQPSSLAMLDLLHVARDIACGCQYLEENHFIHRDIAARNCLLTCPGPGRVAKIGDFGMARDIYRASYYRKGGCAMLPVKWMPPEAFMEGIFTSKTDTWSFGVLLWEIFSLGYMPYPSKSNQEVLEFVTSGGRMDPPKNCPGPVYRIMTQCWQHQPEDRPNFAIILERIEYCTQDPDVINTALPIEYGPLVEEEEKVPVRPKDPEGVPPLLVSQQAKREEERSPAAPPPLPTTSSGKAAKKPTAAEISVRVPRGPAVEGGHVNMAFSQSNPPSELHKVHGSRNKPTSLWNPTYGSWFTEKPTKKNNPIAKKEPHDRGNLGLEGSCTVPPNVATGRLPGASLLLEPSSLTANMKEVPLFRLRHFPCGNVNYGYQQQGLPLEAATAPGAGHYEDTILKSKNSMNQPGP
Chain of F1t1(h) (P17948 27-1338): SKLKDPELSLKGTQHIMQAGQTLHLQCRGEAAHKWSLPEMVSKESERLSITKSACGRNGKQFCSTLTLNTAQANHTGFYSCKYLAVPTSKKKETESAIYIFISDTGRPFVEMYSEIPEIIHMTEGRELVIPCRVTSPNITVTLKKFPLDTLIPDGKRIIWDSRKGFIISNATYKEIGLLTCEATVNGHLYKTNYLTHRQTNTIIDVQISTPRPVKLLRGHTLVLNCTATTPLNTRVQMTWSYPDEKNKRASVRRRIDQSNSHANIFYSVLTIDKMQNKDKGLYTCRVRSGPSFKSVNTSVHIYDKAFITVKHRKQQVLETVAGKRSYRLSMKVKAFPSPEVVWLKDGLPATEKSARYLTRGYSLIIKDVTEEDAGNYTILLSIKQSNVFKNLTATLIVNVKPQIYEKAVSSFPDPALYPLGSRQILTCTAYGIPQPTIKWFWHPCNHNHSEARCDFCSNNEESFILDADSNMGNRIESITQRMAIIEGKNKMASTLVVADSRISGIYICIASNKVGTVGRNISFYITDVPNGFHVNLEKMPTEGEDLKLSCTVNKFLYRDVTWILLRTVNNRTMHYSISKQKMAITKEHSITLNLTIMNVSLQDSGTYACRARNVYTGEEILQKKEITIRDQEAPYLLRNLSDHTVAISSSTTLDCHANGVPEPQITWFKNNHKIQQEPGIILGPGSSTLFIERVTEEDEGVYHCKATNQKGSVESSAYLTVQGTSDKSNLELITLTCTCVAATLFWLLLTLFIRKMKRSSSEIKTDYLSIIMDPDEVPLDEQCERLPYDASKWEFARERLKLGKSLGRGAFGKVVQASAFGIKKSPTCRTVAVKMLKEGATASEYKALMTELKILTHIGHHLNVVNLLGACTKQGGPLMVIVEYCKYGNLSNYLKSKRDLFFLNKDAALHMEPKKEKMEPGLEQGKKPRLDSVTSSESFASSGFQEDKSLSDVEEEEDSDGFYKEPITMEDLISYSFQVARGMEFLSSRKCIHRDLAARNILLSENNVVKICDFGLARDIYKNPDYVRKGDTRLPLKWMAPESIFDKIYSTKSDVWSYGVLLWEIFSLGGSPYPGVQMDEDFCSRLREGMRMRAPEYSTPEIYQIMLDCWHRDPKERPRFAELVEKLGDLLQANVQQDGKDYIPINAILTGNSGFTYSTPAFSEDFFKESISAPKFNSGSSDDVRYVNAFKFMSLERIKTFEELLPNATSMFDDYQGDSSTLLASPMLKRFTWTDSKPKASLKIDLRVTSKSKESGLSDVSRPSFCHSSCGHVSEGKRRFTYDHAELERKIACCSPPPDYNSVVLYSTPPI
T14 sequence (P42680 whole entry): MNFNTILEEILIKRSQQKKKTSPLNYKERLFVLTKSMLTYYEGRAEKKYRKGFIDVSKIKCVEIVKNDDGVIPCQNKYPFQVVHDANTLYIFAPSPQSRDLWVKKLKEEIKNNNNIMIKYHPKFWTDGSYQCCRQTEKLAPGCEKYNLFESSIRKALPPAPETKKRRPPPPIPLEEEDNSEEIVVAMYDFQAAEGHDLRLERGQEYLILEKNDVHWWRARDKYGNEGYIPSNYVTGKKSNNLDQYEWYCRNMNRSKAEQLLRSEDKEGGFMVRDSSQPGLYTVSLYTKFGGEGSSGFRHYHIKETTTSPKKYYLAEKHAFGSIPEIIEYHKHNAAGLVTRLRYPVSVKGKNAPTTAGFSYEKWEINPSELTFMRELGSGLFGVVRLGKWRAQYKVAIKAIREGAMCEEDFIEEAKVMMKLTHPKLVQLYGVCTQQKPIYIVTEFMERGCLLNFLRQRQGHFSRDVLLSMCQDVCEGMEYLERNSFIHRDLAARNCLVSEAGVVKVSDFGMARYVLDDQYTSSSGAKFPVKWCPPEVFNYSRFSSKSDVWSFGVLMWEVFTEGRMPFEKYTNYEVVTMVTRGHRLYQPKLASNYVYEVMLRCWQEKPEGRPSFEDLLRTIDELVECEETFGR
T10 sequence (O43353 whole entry): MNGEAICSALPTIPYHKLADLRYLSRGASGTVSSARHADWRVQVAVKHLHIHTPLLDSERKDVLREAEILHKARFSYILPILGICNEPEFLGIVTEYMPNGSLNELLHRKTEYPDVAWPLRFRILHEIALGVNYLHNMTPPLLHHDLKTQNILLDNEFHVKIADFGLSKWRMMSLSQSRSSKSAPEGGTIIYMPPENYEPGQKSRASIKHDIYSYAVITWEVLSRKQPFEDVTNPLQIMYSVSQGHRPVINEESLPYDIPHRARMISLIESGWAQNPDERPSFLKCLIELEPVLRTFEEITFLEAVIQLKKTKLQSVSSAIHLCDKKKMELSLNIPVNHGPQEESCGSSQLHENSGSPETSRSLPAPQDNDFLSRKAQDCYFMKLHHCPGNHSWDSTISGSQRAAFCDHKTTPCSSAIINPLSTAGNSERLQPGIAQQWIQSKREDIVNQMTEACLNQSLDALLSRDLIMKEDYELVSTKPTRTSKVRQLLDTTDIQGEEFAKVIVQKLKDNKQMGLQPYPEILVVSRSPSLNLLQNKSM

Question: Which Activity % (ALK(h)) does the source give for `Cc1cc2c(F)c(Oc3nc(Nc4cc(C5CC5)[nH]n4)cc(N4CCN(C)CC4)n3)cc(F)c2[nH]1` [NTW-3475] here?
Answer: The Activity % was 17%.

Question: And the Activity % (ARK5(h))?
Answer: The Activity % was 2%.

Question: And the Activity % (Ab1(H396P)(h))?
Answer: Its Activity % is −3%.

Question: And the Activity % (Aurora-C(h))?
Answer: Its Activity % is 21%.

Question: And the Activity % (BRK(h))?
Answer: The Activity % was 33%.

Question: What about the Activity % (CDK1/cyclinB(h)) of the same molecule?
Answer: Its Activity % is 81%.

Question: And the Activity % (CDK6/cyclinD3(h))?
Answer: The Activity % was 65%.

Question: And the Activity % (CHK2(h))?
Answer: The Activity % was 95%.

Question: And the Activity % (CK1γ1(h))?
Answer: Its Activity % is 96%.

Question: What about the Activity % (CaMKIδ(h)) of the same molecule?
Answer: Its Activity % is 87%.

Question: What about the Activity % (DDR2(h)) of the same molecule?
Answer: Its Activity % is 9%.

Question: And the Activity % (EGFR(L861Q)(h))?
Answer: Its Activity % is 52%.

Question: What about the Activity % (EphA4(h)) of the same molecule?
Answer: The Activity % was 23%.

Question: And the Activity % (F1t1(h))?
Answer: Its Activity % is 11%.

Question: What about the Activity % (F1t4(h)) of the same molecule?
Answer: Its Activity % is 0%.

Question: And the Activity % (FGFR1(V561M)(h))?
Answer: The Activity % was −4%.

Question: And the Activity % (Fgr(h))?
Answer: Its Activity % is 2%.

Question: What about the Activity % (JNK2α2(h)) of the same molecule?
Answer: The Activity % was 107%.

Question: What about the Activity % (Lck(h)) of the same molecule?
Answer: The Activity % was −8%.

Question: What about the Activity % (Lyn(h)) of the same molecule?
Answer: Its Activity % is 5%.

Question: What about the Activity % (Lyn(m)) of the same molecule?
Answer: Its Activity % is 1%.

Question: And the Activity % (MARK1(h))?
Answer: The Activity % was 28%.

Question: What about the Activity % (MKK4(m)) of the same molecule?
Answer: The Activity % was 100%.

Question: And the Activity % (MSK1(h))?
Answer: Its Activity % is 104%.

Question: And the Activity % (Mer(h))?
Answer: The Activity % was 2%.

Question: And the Activity % (Met(D1246N)(h))?
Answer: Its Activity % is 20%.

Question: And the Activity % (PAK4(h))?
Answer: The Activity % was 70%.

Question: What about the Activity % (PDK1(h)) of the same molecule?
Answer: The Activity % was 103%.

Question: What about the Activity % (PKCα(h)) of the same molecule?
Answer: Its Activity % is 95%.

Question: And the Activity % (PKGIβ(h))?
Answer: The Activity % was 111%.

Question: What about the Activity % (PrKX(h)) of the same molecule?
Answer: The Activity % was 68%.

Question: What about the Activity % (RIPK2(h)) of the same molecule?
Answer: The Activity % was 90%.

Question: And the Activity % (SAPK3(h))?
Answer: The Activity % was 115%.

Question: And the Activity % (SGK3(h))?
Answer: The Activity % was 102%.

Question: And the Activity % (TGFBR1(h))?
Answer: Its Activity % is 44%.

Question: What about the Activity % (Tec(h) activated) of the same molecule?
Answer: The Activity % was 52%.

Question: And the Activity % (Tie2(Y897S)(h))?
Answer: Its Activity % is 3%.

Question: And the Activity % (TrkA(h))?
Answer: Its Activity % is 2%.

Question: And the Activity % (ZAP-70(h))?
Answer: Its Activity % is 110%.

Question: And the Activity % (cSRC(h))?
Answer: Its Activity % is 2%.
